Here are results for four molecules from patent US7022700B2, “Method of increasing neutrophil production using optically-pure (R)-2,3-benzodiazepines” (Vela Pharmaceuticals, Inc., priority 2002, dated 2006).

Data set [1] deals with peripheral BZ receptors (Homo sapiens, UniProt P30536). The settings on record: cited from earlier work.
For data set [2], the system named is lymphocyte. As to conditions: in vitro; cited from earlier work.
For data set [3], the system named is central benzodiazepine (BZ) receptors. The settings on record: cited from earlier work.
In data set [4] the test system is IL-2 production. The settings on record: in vitro; cited from earlier work.
Data set [5] deals with neutrophil production (absolute neutrophil count). Nature of the data set: Increase in neutrophil production in 16-day study in rat. Format: in vivo. How it is done:
Animals were identified using an implanted microchip identification device encoded with a unique number. Each animal was dosed daily via oral gavage with either a test substance (R-tofisopam) or control, starting on Day 1 and through day 15. The control article was 0.5% low viscosity carboxymethylcellulose (CMC) (Lot No. 74231) and 0.4% Tween 80® (lot no. QJ1033) in reverse osmosis water.
The animals were sacrificed on Day 16 (with the exception of three males and one female which died on test or was sacrificed before the scheduled termination, and which are not included in the mean neutrophil count data). Neutrophil counts in Table 2, below, are reported as a mean value of the count for the animals of each group surviving and sacrificed on Day 16.
The normal range of absolute neutrophil counts is […] for male and 0.2–2.4×10^3 cells/μL for female rats. For each sex, groups 2–4 were compared with the control group (Group 1M or 1F). Group comparisons were evaluated at the 5.0%, two-tailed probability level. Data marked with * represents a statistically significant difference from the corresponding control group.

For data set [6] the following is noted: in vivo; cited from earlier work.
Setting [7] is: female rats, group 2F, 100 mg/kg/day oral gavage days 1-15.
The mark [8] stands for this setting: female rats, group 3F, 200 mg/kg/day oral gavage days 1-15.
Setting [9] is: female rats, group 4F, 400 mg/kg/day oral gavage days 1-15.
Setting [10] is: male rats, group 2M, 100 mg/kg/day oral gavage days 1-15.
The mark [11] stands for this setting: male rats, group 3M, 200 mg/kg/day oral gavage days 1-15.
Where [12] appears, read: male rats, group 4M, 400 mg/kg/day oral gavage days 1-15.

Marks after values point to notes of the source that are not given here.

Chain of peripheral BZ receptors (P30536 whole entry): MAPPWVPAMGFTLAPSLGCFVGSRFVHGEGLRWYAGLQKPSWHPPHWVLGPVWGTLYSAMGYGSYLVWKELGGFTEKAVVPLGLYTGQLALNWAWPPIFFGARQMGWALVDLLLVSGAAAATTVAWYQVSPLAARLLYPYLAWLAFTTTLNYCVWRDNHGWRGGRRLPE

Turning to `CCC1C(C)=NN=C(c2ccc(OC)c(OC)c2)c2cc(OC)c(OC)cc21` (racemic) [tofisopam], the “binding to peripheral BZ receptors” value in data set [1] is on record as “binds only weakly”. In data set [2], the mitogen-induced lymphocyte proliferation entry was “enhances”. In addition, in data set [3], the “interaction with central benzodiazepine (BZ) receptors” value was “does not interact”. Further, the IL-2 production entry in data set [4] is on record as “enhances”.

Consider `CC[C@H]1C(C)=NN=C(c2ccc(OC)c(OC)c2)c2cc(OC)c(OC)cc21` [R-tofisopam, (R)-1-(3,4-dimethoxyphenyl)-4-methyl-5-ethyl-7,8-dimethoxy-5H-2,3-benzodiazepine], for which the “Mean % change (day 16)” value is given as 29* % in data set [5] (setting [7]); 47* % in data set [5] (setting [8]); 63* % in data set [5] (setting [9]); 43* % in data set [5] (setting [10]); 45* % in data set [5] (setting [11]); 57* % in data set [5] (setting [12]). Also, the “Mean Neutrophil count (day 16)” value is 2.4* × 10^3/μL in data set [5] (setting [7]); 6.0* × 10^3/μL in data set [5] (setting [8]); 11.6* × 10^3/μL in data set [5] (setting [9]); 5.7* × 10^3/μL in data set [5] (setting [10]); 7.4* × 10^3/μL in data set [5] (setting [11]); 12.9* × 10^3/μL in data set [5] (setting [12]). For the same molecule, the “neutrophil levels versus control group” value in data set [5] (male and female rats, 100-400 mg/kg/day oral gavage, 5.0% two-tailed probability level) is “significantly increased in a dose-dependant manner”.

B1: Nupogen: recombinant version of a human protein, G-CSF (granulocyte-colony stimulating factor) (protein, chains of the INN, looked up)
chain: MTPLGPASSLPQSFLLKCLEQVRKIQGDGAALQEKLCATYKLCHPEELVLLGHSLGIPWAPLSSCPSQALQLAGCLSQLHSGLFLYQGLLQALEGISPELGPTLDTLQLDVADFATTIWQQMEELGMAPALQPTQGAMPAFASAFQRRAGGVLVASHLQSFLEVSYRVLRHLAQP
As for B1, the elimination half-life in data set [6] is 3.5 h.

B2: Neulasta: a longer acting derivative of filgrastim (protein, chains of the INN, looked up)
chain: TPLGPASSLPQSFLLKCLEQVRKIQGDGAALQEKLCATYKLCHPEELVLLGHSLGIPWAPLSSCPSQALQLAGCLSQLHSGLFLYQGLLQALEGISPELGPTLDTLQLDVADFATTIWQQMEELGMAPALQPTQGAMPAFASAFQRRAGGVLVASHLQSFLEVSYRVLRHLAQP
modifications: PEG 20 kDa
notes: a longer acting derivative of filgrastim
B2: in data set [6], the elimination half-life is 15 to 80 h.
